Assay results: BindingDB's records for doi:10.1016/j.bmcl.2014.01.058 (Novartis Institutes For Biomedical Research, 2014)

Columns and labels:
[1] = Inhibition of RSK2 in mouse BAF cells assessed as YB1 phosphorylation at Ser102 by electrochemiluminescence assay
[2] = Inhibition of recombinant full length RSK2 (unknown origin) using biotin-AGAGRSRHSSYPAGT-OH as substrate after 150 mins

IC50 [1] [nM]	IC50 [2] [nM]	SMILES
800	4	COc1cc(Nc2nc3cccc(-c4cccc5[nH]cnc45)c3o2)cc(OC)c1OC
6300	10	COc1ccc(Nc2nc3cccc(-c4c(F)cccc4OC)c3o2)cc1O[C@H]1CCNC1
5700	20	COc1ccccc1-c1cccc2nc(Nc3cc(OC)c(OC)c(OC)c3)oc12
3700	40	COc1ccc(F)cc1-c1cccc2nc(Nc3cc(OC)c(OC)c(OC)c3)oc12
9700	40	COc1cc(C)ccc1-c1cccc2nc(Nc3cc(OC)c(OC)c(OC)c3)oc12
5700	50	COc1cc(Nc2nc3cccc(-c4cccc5cn[nH]c45)c3o2)cc(OC)c1OC
6500	70	COc1ccc(Nc2nc3cccc(-c4c(F)cccc4OC)c3o2)cc1OC
17200	210	COc1cc(Nc2nc3cccc(-c4c(F)cccc4OC)c3o2)cc(OC)c1
> 20000	220	COc1ccc(Nc2nc3cccc(-c4c(F)cccc4OC)c3o2)cc1N
18000	220	COc1cc(Nc2nc3cccc(-c4ccccc4F)c3o2)cc(OC)c1OC
> 20000	340	COc1cccc(F)c1-c1cccc2nc(Nc3cccc(S(N)(=O)=O)c3)oc12
15400	410	COc1cccc(Nc2nc3cccc(-c4c(F)cccc4OC)c3o2)c1
10800	490	CCOc1cccc(F)c1-c1cccc2nc(Nc3cc(OC)c(OC)c(OC)c3)oc12
19800	560	COc1cc(Nc2nc3cccc(-c4nc(C)[nH]c4C)c3o2)cc(OC)c1OC
> 20000	620	COc1cccc(F)c1-c1cccc2nc(NC3CCCCC3)oc12
> 20000	620	COc1cccc(Nc2nc3cccc(-c4c(F)cccc4OC)c3o2)n1
> 20000	730	CCOc1cccc(Nc2nc3cccc(-c4c(F)cccc4OC)c3o2)c1
> 20000	970	COc1cc(Nc2nc3cccc(-c4c(F)cccc4OC(C)C)c3o2)cc(OC)c1OC
> 20000	1000	COc1cccc(F)c1-c1cccc2nc(Nc3ccccc3)oc12
14500	1100	COc1ccc(C)cc1-c1cccc2nc(Nc3cc(OC)c(OC)c(OC)c3)oc12
> 20000	1200	COc1cc(Nc2nc3cccc(-c4c(OC)cccc4OC)c3o2)cc(OC)c1OC
> 20000	1400	COc1ccc(Nc2nc3cccc(-c4c(F)cccc4OC)c3o2)cc1
> 20000	2800	COc1cccc(F)c1-c1cccc2nc(N)oc12
> 20000	3200	COc1cccc(F)c1-c1cccc2nc(NC3CCOCC3)oc12
> 20000	4000	COc1cc(Nc2nc3cccc(-c4ccccc4OC(F)(F)F)c3o2)cc(OC)c1OC
> 20000	9300	COc1cc(Nc2nc3cccc(-c4ccccc4-c4cn[nH]c4)c3o2)cc(OC)c1OC
